In the supplement of paper PMC10307832:

Columns and labels:
Test in all cases: relative viability (nuclei count vs DMSO), 5 days (fraction); higher = more cells survive
AZD5582 + AZD7762 = compound: C[C@@H](C(=O)N[C@@H](C1CCCCC1)C(=O)N2CCC[C@H]2C(=O)N[C@@H]3[C@@H](CC4=CC=CC=C34)OCC#CC#CCO[C@@H]5CC6=CC=CC=C6[C@@H]5NC(=O)[C@@H]7CCCN7C(=O)[C@H](C8CCCCC8)NC(=O)[C@H](C)NC)NC [AZD5582] + NC(=O)Nc1cc(-c2cccc(F)c2)sc1C(=O)N[C@H]1CCCNC1 [AZD7762] (partner 0.2 µM)
Outline: (§1)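 Relative viability was taken as the ratio of nuclei in treated wells to nuclei in vehicle wells. Lung cancer cell lines in 1536-well plates received compounds by pin tool one day after seeding, either one drug alone or a fixed anchor-drug dose plus five library-drug doses (not always all listed) in √10 steps. Nuclei were counted on 4× images after 5 days of treatment, and values are medians of duplicate plates.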

AZD5582 + Vorinostat = compound: C[C@@H](C(=O)N[C@@H](C1CCCCC1)C(=O)N2CCC[C@H]2C(=O)N[C@@H]3[C@@H](CC4=CC=CC=C34)OCC#CC#CCO[C@@H]5CC6=CC=CC=C6[C@@H]5NC(=O)[C@@H]7CCCN7C(=O)[C@H](C8CCCCC8)NC(=O)[C@H](C)NC)NC [AZD5582] + O=C(CCCCCCC(=O)Nc1ccccc1)NO [Vorinostat] (partner 1 µM)
Outline: as §1

Temozolomide + Foretinib = compound: Cn1nnc2c(C(N)=O)ncn2c1=O [Temozolomide] + COc1cc2c(Oc3ccc(NC(=O)C4(C(=O)Nc5ccc(F)cc5)CC4)cc3F)ccnc2cc1OCCCN1CCOCC1 [Foretinib] (partner 0.25 µM)
Outline: as §1

[1] = compound: Cn1nnc2c(C(N)=O)ncn2c1=O [Temozolomide] + C[C@@H](Oc1cc(-c2cnn(C3CCNCC3)c2)cnc1N)c1c(Cl)ccc(F)c1Cl [Crizotinib] (partner 1 µM)
Outline: as §1

Cell Line | relative viability (AZD5582 + AZD7762; first compound 0.001581 µM) | relative viability (AZD5582 + AZD7762; first compound 0.005 µM) | relative viability (AZD5582 + AZD7762; first compound 0.01581 µM) | relative viability (AZD5582 + AZD7762; first compound 0.05 µM) | relative viability (AZD5582 + Vorinostat; first compound 0.001581 µM) | relative viability (AZD5582 + Vorinostat; first compound 0.005 µM) | relative viability (AZD5582 + Vorinostat; first compound 0.01581 µM) | relative viability (AZD5582 + Vorinostat; first compound 0.05 µM) | relative viability (Temozolomide + Foretinib; first compound 0.2 µM) | relative viability (Temozolomide + Foretinib; first compound 0.6325 µM) | relative viability (Temozolomide + Foretinib; first compound 2 µM) | relative viability (Temozolomide + Foretinib; first compound 6.325 µM) | relative viability (Temozolomide + Foretinib; first compound 20 µM) | relative viability ([1]; first compound 0.2 µM) | relative viability ([1]; first compound 0.6325 µM) | relative viability ([1]; first compound 2 µM) | relative viability ([1]; first compound 6.325 µM) | relative viability ([1]; first compound 20 µM)
LC-2-ad | 0.821 | 1.04 | 0.801 | 0.929 | 0.697 | 0.726 | 0.704 | 0.804 | 0.838 | 1 | 0.971 | 0.898 | 0.765 | 0.455 | 0.443 | 0.51 | 0.443 | 0.437
LCLC-97TM1 | 0.193 | 0.221 | 0.225 | 0.154 | 0.34 | 0.62 | 0.159 | 0.343 | 0.919 | 0.906 | 0.86 | 0.979 | 0.934 | 0.344 | 0.237 | 0.342 | 0.33 | 0.375
LCLC-103H | 0.745 | 0.725 | 0.613 | 0.41 | 0.736 | 0.797 | 0.429 | 0.636 | 0.834 | 0.787 | 0.895 | 0.73 | 0.713 | 1.03 | 1.04 | 1.08 | 1.05 | 1.05
LK-2 | 0.249 | 0.537 |  | 0.338 | 0.269 | 0.295 | 0.236 | 0.304 | 1.25 | 1.44 | 1.19 | 0.742 | 0.519 | 0.26 | 0.229 | 0.252 | 0.206 | 0.213
LOU-NH91 | 0.715 | 0.833 | 0.704 | 0.742 | 0.867 | 0.872 | 0.794 | 0.842 | 0.674 | 0.913 | 0.941 | 0.568 | 0.569 | 0.557 | 0.758 | 0.75 | 0.704 | 0.532
LU99A | 0.317 | 0.349 | 0.313 | 0.337 | 0.503 | 0.482 | 0.466 | 0.591 | 0.874 | 0.851 | 0.832 | 0.784 | 0.73 | 0.592 | 0.601 | 0.6 | 0.557 | 0.515
LXF-289 | 1.01 | 1.09 | 0.963 | 1.12 | 0.698 | 0.779 | 0.641 | 0.905 | 0.978 | 0.998 | 0.985 | 0.964 | 0.908 | 0.825 | 0.82 | 0.761 | 0.791 | 0.76
NCI-H23 | 0.163 | 0.172 | 0.177 | 0.227 | 0.445 | 0.583 | 0.483 | 0.448 | 1.02 | 0.979 | 0.97 | 0.778 | 1.05 | 0.464 | 0.528 | 0.509 | 0.432 | 0.547
NCI-H322M | 0.53 | 0.598 | 0.504 | 0.6 | 0.924 | 1.01 | 0.97 | 1.17 |  | 0.937 | 1.12 | 0.982 | 0.864 |  | 0.976 | 1 | 0.882 | 0.715
NCI-H358 | 0.471 | 0.586 | 0.697 | 0.506 | 0.639 | 0.745 | 0.678 | 0.714 | 0.477 | 0.707 | 0.614 | 0.657 | 0.541 | 0.785 | 0.62 | 0.686 | 0.552 | 0.559
NCI-H441 | 0.942 | 0.895 | 1.02 | 0.867 | 0.723 | 0.708 | 0.889 | 0.921 | 1.12 | 0.937 | 1.15 | 1.02 | 1.07 | 0.717 | 0.824 | 0.775 | 0.766 | 0.78
NCI-H460 | 0.516 | 0.628 | 0.562 | 0.639 | 0.655 | 0.686 | 0.697 | 1.01 | 0.988 | 0.967 | 1 | 0.96 | 1.11 | 0.963 | 0.784 | 0.973 | 0.861 | 0.888
NCI-H596 | 1.07 |  | 1.11 | 0.38 | 0.506 |  | 0.629 | 0.527 | 0.952 | 0.925 | 0.997 | 0.451 | 0.818 | 1.07 | 0.978 | 1.06 | 1.04 | 0.884
NCI-H647 | 0.324 | 0.394 | 0.336 | 0.447 | 0.353 | 0.515 | 0.635 | 0.585 | 1.16 | 1.3 | 1.13 | 0.702 | 0.302 | 1.3 | 1.1 | 1.09 | 0.85 | 0.318
NCI-H650 | 1.05 | 1.07 | 0.643 | 0.788 | 0.316 | 0.305 | 0.308 | 0.619 | 0.898 | 0.991 | 1.06 | 1 | 1.07 | 0.679 | 0.697 | 0.607 | 0.725 | 0.669
NCI-H727 | 0.538 | 0.744 | 0.651 | 0.833 | 1.06 | 1.13 | 1.01 | 1.16 | 0.835 | 0.791 | 0.99 | 0.705 | 0.702 | 0.876 | 0.73 | 0.812 | 0.791 | 0.763
NCI-H838 | 0.87 | 0.903 | 0.81 | 1.01 | 0.716 | 0.775 | 0.855 | 0.956 | 1.01 | 0.939 | 1.02 | 0.994 | 1.09 | 0.876 | 0.888 | 0.894 | 0.808 | 0.869
